Target: mTOR/GbL/Raptor (mTORC1) (Homo sapiens, UniProt P42345)
Assay: mTOR/GbL/Raptor (mTORC1) ELISA assay, phosphorylation of 4E-BP1
Type: biochemical
Conditions: 0.2 nM mTORC1, 40 uM ATP, 50 nM NHis-tagged 4E-BP1, 120 minutes; read-out: IC50 in this assay (mTORC1 ELISA)
Experimental: The measurement of mTORC1 enzyme activity was performed in an ELISA assay format following the phosphorylation of 4E-BP1 protein. All experiments were performed in the 384-well format. Generally, 0.5 μL DMSO containing varying concentrations of the test Compound was mixed with 15 μL enzyme solution. Kinase reactions were initiated with the addition of 15 μL of substrates-containing solution. The assay conditions were-as follows; 0.2 nM mTORC1, 40 uM ATPand 50 nM NHis-tagged4E-BP1 in20 mM Hepes, pH 7.2, 1 mM DTT, 50 mMNaC1, 10 mM MnC12, 0.02 mg/mL BSA, 0.01% CHAPS, 50 mM β-glycerophosphate. Following an incubation of 120 minutes at anibient temperature, 20 μL of the reaction volume was transferred to a Ni-Chelate-coated 384-well plate. The binding step of the 4E-BP1 protein proceeded for 60 minutes, followed by washing 4 times each with 50 uL of Tris-buffered saline solution (TBS). Anti-phospho-4E-BPl rabbit-IgG ([…]. 1:5000) in 5% BSA-TBST (0.2% Tween-20 in TBS) was added and further incubated for 60 minutes. Incubation with a secondary HRP-tagged anti-IgG was similarly performed after washing off the primary antibody (4 washes of 50 μL). Following the final wash step with TBST, 20 μL of SuperSignal ELISA Femto (Pierce Biotechnology) was added and the luminescence measured using an En Vision plate reader.

SMILES	IC50
Cc1cc(-c2cnc3sc(N)nc3c2)cc2c1OCCN(c1ncc(C(N)=O)c(N)n1)C2 [Compound 27, 4-amino-2-[7-(2-amino[1,3]thiazolo[5,4-b]pyridin-6-yl)-9-methyl-2,3-dihydro-1,4-benzoxazepin-4(5H)-yl]pyrimidine-5-carboxamide]	100 to 500 nM
Cc1cc(-c2cncc(NS(C)(=O)=O)c2)cc2c1OCCN(c1nc(N)nc(C)c1C(C)C)C2 [Compound 18, N-(5-{4-[2-amino-6-methyl-5-(1-methylethyl)pyrimidin-4-yl]-9-methyl-2,3,4,5-tetrahydro-1,4-benzoxazepin-7-yl}pyridin-3-yl)methanesulfonamide]	100 to 500 nM
Cc1cc(-c2cnc3sc(N)nc3c2)cc2c1OCCN(c1nc(CN(C)C)nc(C)c1C(C)C)C2 [Compound 31, 6-(4-{2-[(dimethylamino)methyl]-6-methyl-5-(1-methylethyl)pyrimidin-4-yl}-9-methyl-2,3,4,5-tetrahydro-1,4-benzoxazepin-7-yl)[1,3]thiazolo[5,4-b]pyridin-2-amine]	≤ 100 nM
Cc1cc(-c2cnc3sc(N)nc3c2)cc2c1OCCN(c1ncnc(Cl)c1C(C)(C)O)C2 [Compound 131, 2-{4-[7-(2-amino[1,3]thiazolo[5,4-b]pyridin-6-yl)-9-methyl-2,3-dihydro-1,4-benzoxazepin-4(5H)-yl]-6-chloropyrimidin-5-yl}propan-2-ol]	100 to 500 nM
CCN(CC)Cc1nc(C)c(C(C)C)c(N2CCOc3c(C)cc(-c4cnc5sc(N)nc5c4)cc3C2)n1 [Compound 65, 6-(4-{2-[(diethylamino)methyl]-6-methyl-5-(1-methylethyl)pyrimidin-4-yl}-9-methyl-2,3,4,5-tetrahydro-1,4-benzoxazepin-7-yl)[1,3]thiazolo[5,4-b]pyridin-2-amine]	≤ 100 nM
Cc1cc(-c2cnc3sc(N)nc3c2)cc2c1OCCN(c1nc(N)nc(C)c1-c1cccc(F)c1)C2 [Compound 49, 6-{4-[2-amino-5-(3-fluorophenyl)-6-methylpyrimidin-4-yl]-9-methyl-2,3,4,5-tetrahydro-1,4-benzoxazepin-7-yl}[1,3]thiazolo[5,4-b]pyridin-2-amine]	≤ 100 nM
COc1ccc(-c2cc(C)c3c(c2)CN(c2nc(N)nc(C)c2C(C)C)CCO3)cn1 [Compound 74, 4-methyl-5-(1-methylethyl)-6-{9-methyl-7-[6-(methyloxy)pyridin-3-yl]-2,3-dihydro-1,4-benzoxazepin-4(5H)-yl}pyrimidin-2-amine]	100 to 500 nM
Cc1cc(-c2nnc(N)s2)cc2c1OCCN(c1nc(N)nc(C)c1C)C2 [Compound 179, 4-[7-(5-amino-1,3,4-thiadiazol-2-yl)-9-methyl-2,3-dihydro-1,4-benzoxazepin-4(5H)-yl]-5,6-dimethylpyrimidin-2-amine]	≤ 100 nM
Cc1cc(-c2cnc3sc(N)nc3c2)cc2c1OCCN(c1nc(CN3CCC(F)(F)C3)nc(C)c1C(C)C)C2 [Compound 91, 6-(4-{2-[(3,3-difluoropyrrolidin-1-yl)methyl]-6-methyl-5-(1-methylethyl)pyrimidin-4-yl}-9-methyl-2,3,4,5-tetrahydro-1,4-benzoxazepin-7-yl)[1,3]thiazolo[5,4-b]pyridin-2-amine]	≤ 100 nM
Cc1cc(-c2cnc3sc(N)nc3c2)cc2c1OCCN(c1nc(N)nc(C)c1C)C2 [Compound 7, 6-[4-(2-amino-5,6-dimethylpyrimidin-4-yl)-9-methyl-2,3,4,5-tetrahydro-1,4-benzoxazepin-7-yl][1,3]thiazolo[5,4-b]pyridin-2-amine]	100 to 500 nM
Cc1cc(-c2cnc3sc(N)nc3c2)cc2c1OCCN(c1ncnc3c1CC(C)(C)C=C3)C2 [Compound 23, 6-[4-(6,6-dimethyl-5,6-dihydroquinoazolin-4-yl)-9-methyl-2,3,4,5-tetrahydro-1,4-benzoxazepin-7-yl][1,3]thiazolo[5,4-b]pyridin-2-amine]	≤ 100 nM
Cc1cc(-c2cnc3sc(N)nc3c2)cc2c1OCCN(c1nc(CN(C)C(C)(C)C)nc(C)c1C(C)C)C2 [Compound 100, 6-{4-[2-{[(1,1-dimethylethyl)(methyl)amino]methyl}-6-methyl-5-(1-methylethyl)pyrimidin-4-yl]-9-methyl-2,3,4,5-tetrahydro-1,4-benzoxazepin-7-yl}[1,3]thiazolo[5,4-b]pyridin-2-amine]	100 to 500 nM
Cc1cc(-c2cnc3sc(N)nc3c2)cc2c1OCCN(c1nc(N)ncc1C(C)C)C2 [Compound 11, 6-{4-[2-amino-5-(1-methylethyl)pyrimidin-4-yl]-9-methyl-2,3,4,5-tetrahydro-1,4-benzoxazepin-7-yl}[1,3]thiazolo[5,4-b]pyridin-2-amine]	≤ 100 nM
COCCc1cnc(C)nc1N1CCOc2c(C)cc(-c3cnc4sc(N)nc4c3)cc2C1 [Compound 135, 6-(9-methyl-4-{2-methyl-5-[2-(methyloxy)ethyl]pyrimidin-4-yl}-2,3,4,5-tetrahydro-1,4-benzoxazepin-7-yl)[1,3]thiazolo[5,4-b]pyridin-2-amine]	≤ 100 nM
COc1cncc(-c2cc(C)c3c(c2)CN(c2nc(N)nc(C)c2C(C)C)CCO3)c1 [Compound 79, 4-methyl-5-(1-methylethyl)-6-{9-methyl-7-[5-(methyloxy)pyridin-3-yl]-2,3-dihydro-1,4-benzoxazepin-4(5H)-yl}pyrimidin-2-amine]	100 to 500 nM
COCC(C)c1c(C)nc(C)nc1N1CCOc2c(C)cc(-c3cnc4sc(N)nc4c3)cc2C1 (stereo not drawn) [Compound 153, 6-(4-{2,6-dimethyl-5-[1-methyl-2-(methyloxy)ethyl]pyrimidin-4-yl}-9-methyl-2,3,4,5-tetrahydro-1,4-benzoxazepin-7-yl)[1,3]thiazolo[5,4-b]pyridin-2-amine]	≤ 100 nM
Cc1cc(-c2cnc3nc[nH]c3c2)cc2c1OCCN(c1nc(CN(C)CC(F)F)nc(C)c1C(C)C)C2 [Compound 167, 2,2-difluoro-N-({4-[7-(1H-imidazo[4,5-b]pyridin-6-yl)-9-methyl-2,3-dihydro-1,4-benzoxazepin-4(5H)-yl]-6-methyl-5-(1-methylethyl)pyrimidin-2-yl}methyl)-N-methylethanamine]	100 to 500 nM
Cc1cc(-c2cnn(C)c2)cc2c1OCCN(c1nc(N)nc(C)c1C(C)C)C2 [Compound 117, 4-methyl-5-(1-methylethyl)-6-[9-methyl-7-(1-methyl-1H-pyrazol-4-yl)-2,3-dihydro-1,4-benzoxazepin-4(5H)-yl]pyrimidin-2-amine]	100 to 500 nM
C=Cc1c(C)nc(N)nc1N1CCOc2c(C)cc(-c3nnc(N)s3)cc2C1 [Compound 181, 4-[7-(5-amino-1,3,4-thiadiazol-2-yl)-9-methyl-2,3-dihydro-1,4-benzoxazepin-4(5H)-yl]-5-ethenyl-6-methylpyrimidin-2-amine]	≤ 100 nM
Cc1cc(-c2cnc3sc(N)nc3c2)cc2c1OCCN(c1nc(NCCN(C)C)nc(C)c1C(C)C)C2 [Compound 50, N′-{4-[7-(2-amino[1,3]thiazolo[5,4-b]pyridin-6-yl)-9-methyl-2,3-dihydro-1,4-benzoxazepin-4(5H)-yl]-6-methyl-5-(1-methylethyl)pyrimidin-2-yl}-N,N-dimethylethane-1,2-diamine]	≤ 100 nM
Cc1cc(-c2nnc(N)s2)cc2c1OCCN(c1ncncc1C(C)C)C2 [Compound 177, 5-{9-methyl-4-[5-(1-methylethyl)pyrimidin-4-yl]-2,3,4,5-tetrahydro-1,4-benzoxazepin-7-yl}-1,3,4-thiadiazol-2-amine]	≤ 100 nM

Source: patent publication US20140107100A1, “Benzoxazepines as Inhibitors of PI3K/mTOR and Methods of Their Use and Manufacture” (EXELIXIS, INC., priority 2010, published 2014)
